From patent US20260294910A1, “ORAL PHARMACEUTICAL COMPOSITIONS” (Assembly Biosciences, Inc., priority 2023, published 2026)
Where two headings read alike, the source gives them in different places.

Columns and labels:
[1] = human, oral; cited from earlier work
[2] = system: carbonic anhydrase I; experiment: carbonic anhydrase inhibition, CA I; type: biochemical
From the text: Carbonic anhydrase inhibition can be measured using a carbonic anhydrase I assay as described in Katritzky et al. (J. Med. Chem. 1987, 30:2058) and a […] as described in Iyer et al. (J. Biomol. Screen 2006, 11:782).

[3] = system: carbonic anhydrase II; experiment: carbonic anhydrase inhibition, CA II; type: biochemical
[4] = predicted human PK by allometric scaling; details: allometric scaling from multiple species
[5] = biorelevant non-sink dissolution experiment; type: physicochemical; details: 37° C.
Experimental: The preliminary dissolution performance of the SD samples and bulk Compound 1 was tested in a biorelevant non-sink dissolution experiment. About 0.5 mg SD samples were dispersed into 6 mL SGF medium firstly and stirred magnetically with 250 rpm at 37° C. After 30 min, 5 mL cFaSSIF-V2 (2×) medium was added into the above medium and adjusted the pH to 6.5 with 100 μL NaHCO3 (80 g/L). At each time point of 15 and 30 min in SGF and 15, 30, 60, 120 min in FaSSIF, 0.5 mL suspension was taken out and centrifuged. The supernatants were analyzed by HPLC.

[6] = Dog IV study with and without oral charcoal administration (Example 10); type: in vivo, male non-naïve Beagle dogs; details: 0.10 mg/kg
Experimental: A 0.1 mg/mL solution of Compound 1 in 10% DMSO/10% Solutol HS15/80% Saline was prepared as follows: • 1) 4.63 mg Compound 1 was weighed into appropriately sized tube. • 2) 4.57 mL of DMSO was added into the tube. Vortexed for 2 minutes. • 3) 4.57 mL of Solutol HS15 was added into above tube. Vortexed for 2 minutes. • 4) 36.54 mL of saline was added. Vortex for 1 minute.
A 100 mg/mL suspension of Activated Charcoal in Saline was prepared as follows: • 1) 300 g Activated Charcoal was weighed into appropriately sized tube. • 2) 3000 mL of saline was added into the tube. • 3) Mixture was stirred for 10 minutes, and then sonicated for 10 minutes.
Two groups of Male non-naïve beagles were used for the dog PK study (n=2 per group). The prepared oral formulation was administered via oral administration with 25 gram dose of activated charcoal to Group 2 animals. Immediately after the PO administration, the prepared IV formulation was administered via 10 minutes IV infusion to both Group 1 and Group 2 animals with appropriate dosing volume to achieve the respective doses. Group 1 animals were fed before administration. Group 2 animals were fasted overnight before administration and were fed at 4 hours post oral administration.
At each time point, approximately 0.5 mL of whole blood was collected into K2EDTA tubes. […] Plasma samples were stored at approximately −80° C. until analyzed by LC-MS.

[7] = system: recurrent genital herpes (HSV); details: human, oral, 100, 200, 400 and 1200 mg vs placebo; cited from earlier work
[8] = system: genital HSV-2; details: human, oral, cited from earlier work
[9] = system: genital HSV; details: human, oral, cited from earlier work
[10] = cited from earlier work

Structure (SMILES): C[C@@H](c1ccccc1)N(CC(=O)Nc1ccc(-c2csc(N)n2)cc1)C(=O)c1ccncc1 [BILS-179 BS]
- adverse events in early clinical trials [1]: suspended in early clinical trials due to adverse events

Structure (SMILES): Cc1nc(N2CCCN(c3ccc(-c4cc(F)ccc4F)cc3)C2=O)sc1S(N)(=O)=O [Compound 1, 2-(3-(2′,5′-difluoro-[1,1′-biphenyl]-4-yl)-2-oxotetrahydropyrimidin-1(2H)-yl)-4-methylthiazole-5-sulfonamide]
- carbonic anhydrase I inhibition [2]: no or low levels of carbonic anhydrase inhibition
- carbonic anhydrase II inhibition [3]: no or low levels of carbonic anhydrase inhibition
- predicted human clearance [4]: 0.06 L/h
- Concentration in FaSSIF at 45 min ([5]; FaSSIF (pH 6.5), 45 min): 140 ng/mL
- Concentration in FaSSIF at 60 min ([5]; FaSSIF (pH 6.5), 60 min): 120 ng/mL
- Concentration in FaSSIF at 90 min ([5]; FaSSIF (pH 6.5), 90 min): 140 ng/mL
- Concentration in FaSSIF at 150 min ([5]; FaSSIF (pH 6.5), 150 min): 120 ng/mL
- Concentration in SGF at 15 min ([5]; SGF (pH 1.7), 15 min): 100 ng/mL
- Concentration in SGF at 30 min ([5]; SGF (pH 1.7), 30 min): 70 ng/mL
- clearance without versus with oral charcoal [6]: slower
- overall exposure without versus with oral charcoal [6]: higher

Structure (SMILES): Cc1cccc(C)c1N(CC(=O)Nc1ccc(-c2ncon2)cc1)C(=O)C1CCS(=O)(=O)CC1 [amenamevir]
- time to lesion healing [7]: only significantly different between the very highest 1200 mg single dose group and the placebo-tested group
- adverse events in early clinical trials [1]: suspended from early HSV clinical trials due to adverse events

Structure (SMILES): Cc1nc(N(C)C(=O)Cc2ccc(-c3ccccn3)cc2)sc1S(N)(=O)=O [pritelivir, N-Methyl-N-(4-methyl-5-sulfamoyl-1,3-thiazol-2-yl)-2-[4-(pyridin-2-yl)phenyl]acetamide]
- genital swabs with HSV shedding ([8]; 100 mg daily after 400 mg loading dose, 28 days): 2.4%
- break-through shedding at 75 mg daily ([9]; 75 mg daily): break-through shedding remained
- antiviral effect ([9]; daily 75 mg vs weekly 400 mg): An oral daily dose of 75 mg had the greatest antiviral effect and this was found to be superior to the less frequently administered weekly dose of 400 mg
- number of days with lesions ([9]; genital herpes): reduced the number of days with lesions
- rate of genital HSV shedding ([9]; high doses, 28 days): reduced the rate of genital HSV shedding
- free fraction of total plasma concentration [10]: 2-3%
- protein binding ([10]; plasma): 97-98%

Structure (SMILES): CC(C)[C@H](N)C(=O)OCCOCn1cnc2c(=O)[nH]c(N)nc21 [valacyclovir]
- genital swabs with HSV shedding ([8]; 500 mg daily): 5.3%
